Results: patent publication US11098061B2 (Celgene CAR LLC, priority 2013, dated 2021)

Legend:
[1] = molecular target: p38a activated, mitogen-activated protein kinase-activated protein kinase 2 (MAPKAP-K2 or MK-2) enzyme (Homo sapiens (Human), UniProt P49137); assay: MK2 Omnia continuous-read kinase assay for compound potency; type: biochemical; conditions: [MK-2]=0.4 nM, [ATP]=1.0 mM, [ST3-Sox]=10 μM
Description: The protocol below describes a continuous-read kinase assay optimized to measure potency of compounds against p38a activated, mitogen-activated protein kinase-activated protein kinase 2 (MAPKAP-K2 or MK-2) enzyme. The mechanics of the assay platform are best described by the vendor (Invitrogen, Carlsbad, Calif.) on their website at the following URL: invitrogen.com/search/global/searchAction. action?resultPage=1 &resultsPerPage=15 &query=om nia&personaFilterTerm=Support+%26+Troubleshoot
Kinase reactions were started with the addition of 40 μL of MK-2 enzyme and monitored every 71 seconds for 30-240 minutes at λex360/λem485 in a Synergy^2, Synergy^4 or Synergy H^4 plate reader from BioTek (Winooski, Vt.). […] Initial velocity (0 minutes to +30 minutes) from each reaction was estimated from the slope of a plot of relative fluorescence units vs time (minutes) and normalized to the no enzyme and no inhibitor control groups for % Inhibition. The resulting % Inhibition values were then plotted against inhibitor concentration to estimate IC50 from log[Inhibitor] vs Response, Variable Slope model in GraphPad Prism from GraphPad Software (San Diego, Calif.).
[MK-2]=0.4 nM, [ATP]=1.0 mM and [ST3-Sox]=10 μM (ATP ^appKM=8-10 μM)

[2] = molecular target: MK2 (Homo sapiens (Human), UniProt P49137); assay: MK2 modification assessment by whole protein mass spectrometry; type: binding; conditions: intact MK2, 60 min, 10-fold excess of compound to protein
Sequence of MK2 (P49137 whole entry): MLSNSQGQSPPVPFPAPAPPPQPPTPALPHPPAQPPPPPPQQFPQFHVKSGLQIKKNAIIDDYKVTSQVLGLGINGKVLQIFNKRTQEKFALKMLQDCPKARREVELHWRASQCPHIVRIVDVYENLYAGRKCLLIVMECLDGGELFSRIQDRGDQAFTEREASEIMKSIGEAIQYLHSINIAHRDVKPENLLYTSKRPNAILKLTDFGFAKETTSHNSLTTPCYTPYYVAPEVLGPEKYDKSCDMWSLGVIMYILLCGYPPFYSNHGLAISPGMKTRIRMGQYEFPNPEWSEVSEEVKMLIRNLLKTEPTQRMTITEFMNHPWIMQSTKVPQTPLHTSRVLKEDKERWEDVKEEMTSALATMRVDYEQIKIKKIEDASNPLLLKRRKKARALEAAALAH
Description: Modification of MK2 is measured by whole protein MS analysis. […] 5 μL aliquots of the samples were diluted with 15 μL of 0.2% TFA prior to micro C4 ZipTipping directly onto the MALDI target using sinapinic acid as the desorption matrix (10 mg/ml in 0.1% TFA:Acetonitrile 50:50). Analysis was performed on a AB Sciex 4800 MALDI TOF/TOF retro fitted with an HM2 detector (CovalX). Percent modification of target MK2 (i.e., the percent of total MK2 modified by the test compound) for each compound was calculated by subtracting the centroid mass of the compound treated MK2 from the centroid mass of the control MK2 and dividing that value with the mass of the compound.

Sequence of p38a activated, mitogen-activated protein kinase-activated protein kinase 2 (MAPKAP-K2 or MK-2) enzyme (P49137 whole entry): as above

Row | Structure (SMILES) | IC50 [1] [nM] | MK2 Mass Mod [2]
1 | C=CC(=O)Nc1ccc2oc(-c3ccc4cc5n(c4c3)C3(CCC3)CNC5=O)nc2c1 [Compound V-60, N-(2-(1′-oxo-2′,3′-dihydro-1′H-spiro[cyclobutane-1,4′-pyrazino [1,2-a]indol]-7′-yl)benzo[d]oxazol-5-yl)acrylamide] | < 100 | G (mass modification ≤30%)
2 | C=CC(=O)N1Cc2cccc(NC(=O)c3ccc4cc5n(c4c3)C3(CCC3)CNC5=O)c2C1 [Compound V-48, N-(2-acryloylisoindolin-4-yl)-1′-oxo-2′,3′-dihydro-1′H-spiro[cyclobutane-1,4′-pyrazino [1,2-a]indole]-7′-carboxamide] | > 1000 | G (mass modification ≤30%)
3 | C=CC(=O)N1CCOc2ncc(-c3ncc4c(n3)-c3[nH]c5c(c3CC4)C(=O)NCC5)cc21 [II-17, 2-(1-acryloyl-2,3-dihydro-1H-pyrido[2,3-b][1,4]oxazin-7-yl)-8,9,10,11-tetrahydro-SH-pyrido[3′,4′:4,5]pyrrolo[3,2-h]quinazolin-7(6H)-one] | < 100 | E (mass modification of ≥70%)
4 | C=CC(=O)N1CCC[C@H](NC(=O)c2ccc3cc4n(c3c2)C2(CCC2)CNC4=O)C1 [Compound V-47, (S)—N-(1-acryloylpiperidin-3-yl)-1′-oxo-2′,3′-dihydro-1′H-spiro[cyclobutane-1,4′-pyrazino[1,2-a]indole]-7′-carboxamide] | > 1000 | G (mass modification ≤30%)
5 | C=CC(=O)N1CCOc2ncc(-c3cc4c(cn3)CCc3c-4[nH]c4c3C(=O)NCC4)cc21 [II-18, 2-(1-acryloyl-2,3-dihydro-1H-pyrido[2,3-b][1,4]oxazin-7-yl)-8,9,10,11-tetrahydro-SH-pyrido[3′,4′:4,5]pyrrolo[2,3-f]isoquinolin-7(6H)-one] | < 100 | E (mass modification of ≥70%)
6 | C=CC(=O)Nc1cc(C(=O)Nc2cc(-c3cc4c([nH]3)C3(CCCNC3)CNC4=O)ccn2)ccc1F (racemic) [Compound I-24, 3-acrylamido-4-fluoro-N-(4-(4′-oxo-1′,4′,5′,6′-tetrahydrospiro[piperidine-3,7′-pyrrolo[3,2-c]pyridin]-2′-yl)pyridin-2-yl)benzamide] | 101 to 500 | F (mass modification of 31-69%)
7 | C=CC(=O)Nc1cc(NC(=O)c2ccc3cc4n(c3c2)C2(CCC2)CNC4=O)ccc1C [Compound V-53, N-(3-acrylamido-4-methylphenyl)-1′-oxo-2′,3′-dihydro-1′H-spiro[cyclobutane-1,4′-pyrazino[1,2-a]indole]-7′-carboxamide] | > 1000 | E (mass modification of ≥70%)
8 | C=CC(=O)Nc1ccccc1NC(=O)c1ccc2cc3n(c2c1)C1(CCC1)CNC3=O [Compound V-14, N-(2-acrylamidophenyl)-1′-oxo-2′,3′-dihydro-1′H-spiro[cyclobutane-1,4′-pyrazino [1,2-a]indole]-7′-carboxamide] | > 1000 | E (mass modification of ≥70%)
9 | C=CC(=O)Nc1cccc(NC(=O)c2ccc3cc4n(c3c2)CCNC4=O)c1 [Compound V-7, N-(3-acrylamidophenyl)-1-oxo-1,2,3,4-tetrahydropyrazino[1,2-a]indole-7-carboxamide] | > 1000 | F (mass modification of 31-69%)
10 | C=CC(=O)Nc1cc(-c2cc(-c3cc4n(c3)CCNC4=O)ccn2)ccc1OC [V-c-1, N-(2-methoxy-5-(4-(1-oxo-1,2,3,4-tetrahydropyrrolo[1,2-a]pyrazin-7-yl)pyridin-2-yl)phenyl)acrylamide] | – | F (mass modification of 31-69%)
11 | C=CC(=O)Nc1ccccc1NC(=O)c1ccc2cc3n(c2c1)CCNC3=O [Compound V-8, N-(2-acrylamidophenyl)-1-oxo-1,2,3,4-tetrahydropyrazino[1,2-a]indole-7-carboxamide] | > 1000 | E (mass modification of ≥70%)
12 | C=CC(=O)N[C@H]1COC[C@H]1NC(=O)c1ccc2cc3n(c2c1)C1(CCC1)CNC3=O (racemic) [Compound V-49, Cis-N-(4-acrylamidotetrahydrofuran-3-yl)-1′-oxo-2′,3′-dihydro-1′H-spiro[cyclobutane-1,4′-pyrazino[1,2-a]indole]-7′-carboxamide (racemic)] | > 1000 | G (mass modification ≤30%)
13 | C=CC(=O)Nc1ccccc1Nc1nccc(-c2cc3c([nH]2)C2(CCCNC2)CNC3=O)n1 (racemic) [Compound I-5, N-(2-((4-(4′-oxo-1′,4′,5′,6′-tetrahydrospiro[piperidine-3,7′-pyrrolo[3,2-c]pyridin]-2′-yl)pyrimidin-2-yl)amino)phenyl)acrylamide] | > 1000 | F (mass modification of 31-69%)
14 | C=CC(=O)NC1CCCCC1NC(=O)c1ccc2cc3n(c2c1)C1(CCC1)CNC3=O (racemic) [Compound V-64, trans-(2-acrylamidocyclohexyl)-1′-oxo-2′,3′-dihydro-1′H-spiro[cyclobutane-1,4′-pyrazino[1,2-a]indole]-7′-carboxamide (racemic)] | > 1000 | –
15 | C=CC(=O)Nc1cc(-c2nccc(-c3cc4c([nH]3)CCNC4=O)n2)cnc1OCCOC [II-21, N-(2-(2-methoxyethoxy)-5-(4-(4-oxo-4,5,6,7-tetrahydro-1H-pyrrolo[3,2-c]pyridin-2-yl)pyrimidin-2-yl)pyridin-3-yl)acrylamide] | < 100 | E (mass modification of ≥70%)
16 | C=CC(=O)Nc1cc(-c2nccc(-c3cc4c([nH]3)CCNC4=O)n2)ccc1OCCOC [II-22, N-(2-(2-methoxyethoxy)-5-(4-(4-oxo-4,5,6,7-tetrahydro-1H-pyrrolo[3,2-c]pyridin-2-yl)pyrimidin-2-yl)phenyl)acrylamide] | < 100 | E (mass modification of ≥70%)
17 | C=CC(=O)N[C@H]1CCCC[C@H]1NC(=O)c1ccc2cc3n(c2c1)C1(CCC1)CNC3=O (racemic) [Compound V-46, Cis-N-(2-acrylamidocyclohexyl)-1′-oxo-2′,3′-dihydro-1′H-spiro[cyclobutane-1,4′-pyrazino[1,2-a]indole]-7′-carboxamide (racemic)] | > 1000 | G (mass modification ≤30%)
18 | C=CC(=O)Nc1cccc2oc(-c3ccc4cc5n(c4c3)CCNC5=O)nc12 [Compound V-31, N-(2-(1-oxo-1,2,3,4-tetrahydropyrazino[1,2-a]indol-7-yl)benzo[d]oxazol-4-yl)acrylamide] | 501 to 999 | E (mass modification of ≥70%)
19 | C=CC(=O)NC1CS(=O)(=O)CC1NC(=O)c1ccc2sc3c(c2c1)NC[C@@H](C)NC3=O (some centres unmarked) [III-49] | < 100 | G (mass modification ≤30%)
20 | C=CC(=O)N[C@@H]1CCCN(C(=O)c2ccc3cc4n(c3c2)C2(CCC2)CNC4=O)C1 [Compound V-52, (R)—N-(1-(1′-oxo-2′,3′-dihydro-1′H-spiro[cyclobutane-1,4′-pyrazino [1,2-a]indol]-7′-ylcarbonyl)piperidin-3-yl)acrylamide] | > 1000 | G (mass modification ≤30%)
21 | CN(C)C/C=C/C(=O)N1CCOc2ccc(NC(=O)c3ccc4cc5n(c4c3)CCNC5=O)cc21 [Compound V-4, (E)-N-(4-(4-(dimethylamino)but-2-enoyl)-3,4-dihydro-2H-benzo[b][1,4]oxazin-6-yl)-1-oxo-1,2,3,4-tetrahydropyrazino[1,2-a]indole-7-carboxamide] | > 1000 | G (mass modification ≤30%)
22 | C=CC(=O)Nc1c(C)ccc2oc(-c3ccc4cc5n(c4c3)C3(CCC3)CNC5=O)nc12 [Compound V-12, N-(5-methyl-2-(1′-oxo-2′,3′-dihydro-1′H-spiro[cyclobutane-1,4′-pyrazino [1,2-a]indol]-7′-yl)benzo[d]oxazol-4-yl)acrylamide] | > 1000 | –
23 | C=CC(=O)Nc1cc(-c2cc3c(cn2)CCc2c-3[nH]c3c2C(=O)NCC3)ccc1OCCCNC(=O)CCCC(=O)NCCCOCCOCCOCCCNC(=O)CCCC[C@H]1SC[C@H]2NC(=O)N[C@H]21 [Probe 2, N1-(3-(2-acrylamido-4-(7-oxo-6,7,8,9,10,11-hexahydro-5H-pyrido[3′,4′:4,5]pyrrolo[2,3-f]isoquinolin-2-yl)phenoxy)propyl)-N5-(15-oxo-19-((3aR,4R,6aS)-2-oxohexahydro-1H-thieno[3,4-d]imidazol-4-yl)-4,7,10-trioxa-14-azanonadecyl)glutaramide] | < 100 | –
24 | C=CC(=O)Nc1c(C)c(NC2CCCNC2)nc2ccnn12 (centres unmarked) [IV-b-1, N-(6-methyl-5-(piperidin-3-ylamino)pyrazolo [1,5-a]pyrimidin-7-yl)acrylamide] | 101 to 500 | –
25 | C=CC(=O)Nc1cc(-c2cc3c(cn2)CCc2c-3[nH]c3c2C(=O)NCC3)ccc1OCCCNC(=O)CCCC(=O)NCCCOCCOCCOCCCNC(=O)CCCC[C@H]1SC[C@H]2NC(=O)N[C@H]21 [Probe 1] | < 100 | –
